Data as given in patent US5041567A, “Antibacterial monic acid derivatives” (Beecham Group plc, priority 1982, dated 1991).
In brackets after ≈: the same amount, converted by molar mass.

Columns and labels:
[1] = test system: M. suipneumoniae UCD 1; experiment: MIC against mycoplasma in vitro; format: cell-based; conditions: Mesomycoplasma hyopneumoniae, UCD1, 144 h
[2] = test system: Strep. agalactiae 2788-B; experiment: MIC against human bacteria in vitro; format: cell-based; conditions: Streptococcus agalactiae; Strep. agalactiae 2788-B; 5% chocolated horse blood agar, 18 hours; read-out: MIC
[3] = test system: Bord. bronchiseptica B08; experiment: MIC against veterinary bacteria in vitro; conditions: Bordetella bronchiseptica, B08, 18 h
Description: (§1) The activity of the compounds of the Examples against various veterinarily important bacteria, was assayed in vitro using two-fold serial dilutions in Diagnostic Sensitivity Test Agar inoculated with 10^4 organisms.

[4] = test system: Staph. aureus Russell; experiment: MIC against human bacteria in vitro; format: cell-based; conditions: Staphylococcus aureus; Staph. aureus Russell; 5% chocolated horse blood agar, 18 hours; read-out: MIC
[5] = test system: M. suipneumoniae HK(2); experiment: MIC against mycoplasma in vitro; format: cell-based; conditions: Mesomycoplasma hyopneumoniae, 144 h
[6] = test system: Staph. aureus B4 (pen. resistant); experiment: MIC against veterinary bacteria in vitro; conditions: Staphylococcus aureus, 18 h
Description: as §1

[7] = test system: M. bovis NCTC 10131; experiment: microbe, parasite or virus in culture; format: cell-based; conditions: NCTC10131, 144 h
[8] = test system: Past. multocida PA1; experiment: MIC against veterinary bacteria in vitro; conditions: Pasteurella multocida, PA1, 18 h
Description: as §1

[9] = test system: Ps. aeruginosa NCTC 10662; experiment: MIC against human bacteria in vitro; format: cell-based; conditions: Pseudomonas aeruginosa, NCTC10662; Ps. aeruginosa NCTC 10662; 5% chocolated horse blood agar, 18 hours; read-out: MIC
[10] = test system: M. suipneumoniae NB12; experiment: MIC against mycoplasma in vitro; format: cell-based; conditions: Mesomycoplasma hyopneumoniae, NB12, 144 h
[11] = test system: M. bovigenitalium ATCC 14173; experiment: MIC against mycoplasma in vitro; format: cell-based; conditions: 144 h
[12] = test system: Strep. dysgalactiae SPD1; experiment: MIC against veterinary bacteria in vitro; conditions: Streptococcus dysgalactiae, SPD1, 18 h
Description: as §1

[13] = test system: Sarcina lutea 8340; experiment: MIC against human bacteria in vitro; format: cell-based; conditions: Micrococcus luteus; Sarcina lutea 8340; 5% chocolated horse blood agar, 18 hours; read-out: MIC
[14] = test system: Past. multocida PA2; experiment: MIC against veterinary bacteria in vitro; conditions: Pasteurella multocida, PA2, 18 h
Description: as §1

[15] = test system: M. suipneumoniae LABER; experiment: MIC against mycoplasma in vitro; format: cell-based; conditions: Mesomycoplasma hyopneumoniae, 144 h
[16] = test system: M. hyosynoviae ATCC 25591; experiment: MIC against mycoplasma in vitro; format: cell-based; conditions: 144 h
[17] = test system: M. hyorhinis ATCC 25021; experiment: MIC against mycoplasma in vitro; format: cell-based; conditions: Mesomycoplasma hyorhinis, ATCC25021, 144 h; M. hyorhinis ATCC 25021; 6 days, 37° C.; read-out: MIC
[18] = test system: M. hyorhinis ATCC 23234; experiment: MIC against mycoplasma in vitro; format: cell-based; conditions: Mesomycoplasma hyorhinis, ATCC23234, 144 h
[19] = test system: M. suipneumoniae TAM 6N; experiment: MIC against mycoplasma in vitro; format: cell-based; conditions: Mesomycoplasma hyopneumoniae, TAM6N, 144 h
[20] = test system: Strep. suis (group D) SPS11; experiment: MIC against veterinary bacteria in vitro; conditions: Streptococcus suis, 18 h
Description: as §1

[21] = test system: Staph. aureus W2827; experiment: MIC against human bacteria in vitro; format: cell-based; conditions: Staphylococcus aureus; Staph. aureus W2827; 5% chocolated horse blood agar, 18 hours; read-out: MIC
[22] = test system: Erysipelothrix rhusiopathiae NCTC 8163; experiment: MIC against veterinary bacteria in vitro; conditions: Erysipelothrix rhusiopathiae, NCTC8163, 18 h
Description: as §1

[23] = test system: M. suipneumoniae ATCC 25095; experiment: MIC against mycoplasma in vitro; format: cell-based; conditions: Mesomycoplasma hyopneumoniae, ATCC25095, 144 h; M. suipneumoniae ATCC 25095; 6 days, 37° C.; read-out: MIC
[24] = test system: P. mirabilis 889; experiment: MIC against human bacteria in vitro; format: cell-based; conditions: Proteus mirabilis; P. mirabilis 889; 5% chocolated horse blood agar, 18 hours; read-out: MIC
[25] = test system: K. aerogenes A; experiment: MIC against human bacteria in vitro; format: cell-based; conditions: Klebsiella aerogenes; K. aerogenes A; 5% chocolated horse blood agar, 18 hours; read-out: MIC
[26] = test system: Haemophilus influenzae Wy21; experiment: MIC against human bacteria in vitro; format: cell-based; conditions: Haemophilus influenzae Wy21; 5% chocolated horse blood agar, 18 hours; read-out: MIC
[27] = test system: M. suipneumoniae MS 16; experiment: MIC against mycoplasma in vitro; format: cell-based; conditions: Mesomycoplasma hyopneumoniae, MS16, 144 h
[28] = test system: Bord. bronchiseptica B09; experiment: MIC against veterinary bacteria in vitro; conditions: Bordetella bronchiseptica, B09, 18 h
Description: as §1

[29] = test system: Corynebacterium xerosis 9755; experiment: MIC against human bacteria in vitro; format: cell-based; conditions: Corynebacterium xerosis 9755; 5% chocolated horse blood agar, 18 hours; read-out: MIC
[30] = test system: M. suipneumoniae J2206/183^b; experiment: MIC against mycoplasma in vitro; format: cell-based; conditions: Mesomycoplasma hyopneumoniae, 144 h
[31] = test system: Strep. faecalis I; experiment: MIC against human bacteria in vitro; format: cell-based; conditions: Enterococcus faecalis; Strep. faecalis I; 5% chocolated horse blood agar, 18 hours; read-out: MIC
[32] = test system: Corynebacterium pyogenes CY1; experiment: MIC against veterinary bacteria in vitro; conditions: CY1, 18 h
Description: as §1

[33] = test system: Past. haemolytica PA5; experiment: MIC against veterinary bacteria in vitro; conditions: Mannheimia haemolytica, PA5, 18 h
Description: as §1

`C/C(=C\c1ncc(-c2cccc([S+](C)[O-])c2)o1)C[C@@H]1OC[C@H](C[C@@H]2O[C@H]2[C@@H](C)[C@H](C)O)[C@@H](O)[C@H]1O` (stereo partly drawn) [Example 25, 5-m-Methylsulphinylphenyl-2-(1-normon-2-yl)oxazole A] showed an MIC [1] of 1 µg/mL (≈ 1.98 µM), an MIC [2] of 2 µg/mL (≈ 3.96 µM) and an MIC [3] greater than 80 µg/mL. The MIC [4] was 32 µg/mL (≈ 63.3 µM), the MIC [5] was 1 µg/mL (≈ 1.98 µM) and the MIC [6] was 10 µg/mL (≈ 19.8 µM). It also gave an MIC [7] of 0.025 µg/mL (≈ 0.0494 µM), an MIC [8] of 5 µg/mL (≈ 9.89 µM) and an MIC [9] greater than 128 µg/mL. The MIC [10] was 0.25 µg/mL (≈ 0.494 µM), the MIC [11] was 0.25 µg/mL (≈ 0.494 µM) and the MIC [12] was 1.25 µg/mL (≈ 2.47 µM). It also gave an MIC [13] of 128 µg/mL (≈ 253 µM), an MIC [14] of 2.5 µg/mL (≈ 4.94 µM) and an MIC [15] of 0.25 µg/mL (≈ 0.494 µM). The MIC [16] was 1 µg/mL (≈ 1.98 µM), the MIC [17] was 0.5 µg/mL (≈ 0.989 µM) and the MIC [18] was 1 µg/mL (≈ 1.98 µM). It also gave an MIC [19] of 1 µg/mL (≈ 1.98 µM), an MIC [20] of 20 µg/mL (≈ 39.6 µM) and an MIC [21] of 32 µg/mL (≈ 63.3 µM). For the same compound, the MIC [22] was greater than 80 µg/mL, the MIC [23] was 0.5 µg/mL (≈ 0.989 µM) and the MIC [24] was greater than 128 µg/mL. It also gave an MIC [25] greater than 128 µg/mL, an MIC [26] of 2 µg/mL (≈ 3.96 µM) and an MIC [27] of 0.25 µg/mL (≈ 0.494 µM). The MIC [28] was 40 µg/mL (≈ 79.1 µM), the MIC [29] was 128 µg/mL (≈ 253 µM) and the MIC [30] was 1 µg/mL (≈ 1.98 µM). For the same compound, the MIC [31] was greater than 128 µg/mL, the MIC [32] was greater than 80 µg/mL and the MIC [33] was 80 µg/mL (≈ 158 µM).
